The values that follow come from US7208481B2, “Aminodiphosphonate apolipoprotein E modulators” (ILEX Products, Inc., priority 2002, dated 2007).

The subject of data set [1] is secretion of apoE by THP-1 cells. Put plainly: Secretion of apoE by THP-1 cells, apoE determined by ELISA. To be noted: reference compound for assay validation. The format is cell-based, human. As for the experimental part:
The THP-1 cell line was derived from the peripheral blood of a child with acute monocytic leukaemia and were obtained from the European Collection of Animal Cell Cultures (ECACC, #88081201). […] The cells were grown as non-adherent cells in RPMI 1640 culture medium, 2 mM glutamine, 20 μM 2-mercaptoethanol. Fresh medium was added to maintain cell density between 2 and 9×10^5 cells/ml. Once a week, new cultures were initiated by inoculating 10 ml of medium with 2×10^6 cells in a 75 cm^2 plate. The plates were kept at 37° C. in a 5% CO2 atmosphere. For screening, cells were seeded in 24-well plates at the density of 2×10^5 cells per well. Phorbol-12-myristat-13-acetate (PMA) was added at 0 and 5 nM to initiate TBP-1 differentiation into adherent macrophage-like cells. Vehicles, reference compounds and test compounds were added simultaneously at concentrations varying from 50 μM and incubated for 72 hours. […]
Ninety-six well-microtiter plates were coated by incubating with a 5% gelatin solution from porcine skin, bloom 60 in 50 mM carbonate-bicarbonate buffer, pH9.6 at the concentration of 200 μl/well, for 2 hours at 37° C. The coating solution was carefully removed and the sample to be analyzed was added (100 μl/well) at the appropriate dilution. […] The absorbance at 492 nm versus 620 nm was read on a microplate photometer and the results were then converted in human apoE ng equivalent. […]
Background: ELISA stands for enzyme-linked immunosorbent assay.

A further data set has as its system rat plasma apoE. The experiment in a line: In vivo rat model: plasma apoE by ELISA after 5 days of oral treatment. As for the experimental part:
Rats fed a normal diet are a convenient model recently proposed for the screening of apoE modulating compounds (Leininger-Muller & Siest, 1996, herein incorporated by reference).
(§1) This model was validated by testing the hypocholesterolemic drug gemfibrozil (200 mg/kg) as reference compound.
(§2) […] Test compounds were given as a suspension in 20% Tween-80 supplemented with 0.5% carboxymethylcellulose. The control group received 1 ml vehicle alone. After a treatment period of 5 days, rats were weighed, sacrificed by decapitation under pentobarbital anesthesia after an overnight fast. Blood was collected on EDTA and plasma was used for analysis.
(§3) ApoE was quantified by an ELISA method using a goat anti-apolipoprotein E antibody. Briefly, a dilution to 1/200 of rat plasma was coated on microtiter plates. ApoE was recognized by the polyclonal antibody; the conjugate antibody (anti-goat IgG peroxidase) was then added for substrate biochemical recognition. Apolipoprotein E was expressed as % change from mean control value. Cholesterol was measured with a commercially available enzymatic kit. Results were expressed as % change from control group.

The test system of a further data set is rat plasma HDLc. Put plainly: In vivo rat model: plasma HDL cholesterol after 5 days of oral treatment. To be noted: for Rat Plasma HDLc (% change): dose-response experiment, OFA rats, Day 5. How it is done:
as §1, §2, §3

[2] abbreviates: OFA rats, 200 mg/kg/day p.o. for 5 days, change from mean control value.
Where [3] appears, read: OFA rats, 50, 100, 200 mg/kg p.o. for 5 days.
Setting [4] is: rats fed a normal diet, 200 mg/kg/day for 5 days.

Entries after “also recorded” stand apart in the source; their conditions may differ.

For orientation: melting point means the temperature, or range, at which the solid turns liquid.

`CC1=C(/C=C/C(C)=C/C=C/C(C)=C/C(=O)O)C(C)(C)CCC1` [ATRA, all-trans retinoic acid, reference compound]: the “production of apoE by THP-1 cells (effect in words)” value in data set [1] is “decreased; also recorded: potent inhibitor”. Also, the “plasma level of apoE in rats (effect in words)” value in the data set with rat plasma apoE (rats, dose not given) was “decrease”. For the same molecule, in the data set with rat plasma HDLc (rats, dose not given), the “HDL cholesterol level in rats (effect in words)” value is reported as “decrease”.

The molecule `COP(=O)(OC)C(Nc1ccccn1)P(=O)(OC)OC` [Compound 1, Tetramethyl N-(2-pyridyl)aminomethylenediphosphonate] gave a melting point of 162 to 164 °C. In addition, the “Rat Plasma apoE (% change)” value with rat plasma apoE (setting [2]) is reported as “+69 % change”.

`CCOP(=O)(OCC)C(Nc1ccccn1)P(=O)(OCC)OCC` [Compound 2, Tetraethyl N-(2-pyridyl)aminomethylenediphosphonate]: the “Rat Plasma apoE (% change)” value in the data set with rat plasma apoE (setting [2]) is “+44 % change”; with rat plasma apoE (dose-response experiment, OFA rats, 50 mg/kg/day p.o. for 5 days, Day 5) it was “+38 % change”; in the data set with rat plasma apoE (dose-response experiment, OFA rats, 100 mg/kg/day p.o. for 5 days, Day 5) it was “+37 % change”; in the data set with rat plasma apoE (dose-response experiment, OFA rats, 200 mg/kg/day p.o. for 5 days, Day 5), “+62 % change”. In the data set on rat plasma apoE (setting [3]), the “plasma apoE level, dose dependence (in words)” value was “increased in a dose-response way”. In addition, the “plasma HDL cholesterol (HDLc) level, dose dependence (in words)” value with rat plasma HDLc (setting [3]) is “increased in a dose-response way”. For the same molecule, the figures for the “Rat Plasma HDLc (% change)” value with rat plasma HDLc (50 mg/kg/day p.o. for 5 days), in the data set on rat plasma HDLc (100 mg/kg/day p.o. for 5 days) and in the data set on rat plasma HDLc (200 mg/kg/day p.o. for 5 days) were “+27 % change”, “+34 % change” and “+68 % change”, respectively.

As to `CC(C)OP(=O)(OC(C)C)C(Nc1ccccn1)P(=O)(OC(C)C)OC(C)C` [Compound 3, Tetraisopropyl N-(2-pyridyl)aminomethylenediphosphonate], the melting point lay within 98 to 100 °C. For the same molecule, in the data set on rat plasma apoE (po, 200 mg/kg/day, 120 h), the “Rat Plasma apoE (% change)” value is recorded as “+16 % change”.

With `CCOP(=O)(OCC)C(Nc1cnc2ccccc2c1)P(=O)(OCC)OCC` [Compound 9, Tetraethyl N-(3-quinolinyl)aminomethylenediphosphonate], the melting point lay within 156 to 158 °C.

`Cc1ccc(C)c(OCCCC(C)(C)C(=O)O)c1` [gemfibrozil, reference compound]: the “apoE increase in rats (model validation)” value with rat plasma apoE (setting [4]) is “+75%”. Moreover, in the data set with rat plasma HDLc (setting [4]), the “HDL cholesterol increase in rats (model validation)” value is reported as “+42%”.
